The values below come from patent US7655629B2, “Peptides and their use for the treatment of HIV infections” (priority 2002, dated 2010).

Several values for one entry are separate records, joined by “and”; a condition that tells them apart may be missing. Identical values can stand only once. Entries after “also recorded” stand apart in the source; their conditions may differ. Like-named read-outs stand apart in the source and are kept apart here. Positions of bridges follow the written chain, without caps; N, C: chain ends. Non-standard residues stand in square brackets, D forms with d. Residues, ends and D or L forms follow the SMILES beside them. No end group written: not given here. ξ: configuration not given here. Oic(3aξ,7aξ) = O=C(O)[C@@H]1CC2CCCCC2N1; NMeL = CN[C@@H](CC(C)C)C(=O)O; AEEA = NCCOCCOCC(=O)O

The test system of one data set is HIV-1 NL4-3 DTV. The conditions noted are these: read-out: IC50 DTV, P4-CCR5 cells, peptide 2 h before infection, readout three days after infection. The method, boiled down: (§1)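 P4-CCR5 cells (CD4, CCR5, CXCR4, HIV-1 promoter-driven β-galactosidase) pretreated 2 h with peptide, then infected with virus containing 1 ng p24 antigen and incubated overnight. Cells washed and cultured without peptide; three days post-infection infectivity read by chemiluminescent β-galactosidase assay, in quintuplicate.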

The test system of the next data set is X4-tropic HIV-1 NL4-3. The conditions noted are these: read-out: IC50 NL4-3; P4-CCR5 cells, HIV-1 NL4-3, peptide 2 h before infection, readout three days after infection. In short, it runs like this:
as §1

A short description of data set [1]: Acute toxicity in mice after a single intravenous injection. In kind it is in vivo, SCID-C.B 17-mice. The conditions noted are these: 927 mg per kg body weight. As to the method:
Acute toxicity was evaluated with VIR-121 (LEAIPMSIPpEVAFNkPFVF) after a single intravenous injection into the tail vein of SCID-C.B 17-mice. A dose of 927 mg VIR-121 (SEQ ID NO. 2) dissolved in 13.6 ml 0.9 volume % sodium chloride solution per kg body weight (equivalent to 20.4 mg or 272 μL per mouse) was applied. Injection speed was dose within 15 seconds. […] As a control, 3 mice were each treated with a corresponding volume of vehicle (0.9 volume % NaCl). After 24 hours, the animals were sacrificed, dissected and inspected macroscopically. […] No findings were obtained from macroscopic necropsy compared to the control group.

Data set [2] deals with human monocytic THP-1 cells. Kind of data set: Cytotoxicity on human cells, WST-1 assay. The following applies: 24 hours, 30, 100, 300 and 1000 μg/mL. As to the method:
The cytotoxicity of peptides of the invention was tested by evaluating the viability of human monocytic THP-1 cells. Cytotoxic effects of the peptides were tested by their influence on metabolic activity by means of the WST-1 assay (Roche Diagnostics, Germany). THP-1 cells were incubated with test peptides in a 96-well plate (approx. 25,000 cells per well) for 24 hours in RPMI-1640 medium containing 25 mM L-glutamine and 10 volume % fetal calf serum at 37° C. in an atmosphere with 5 volume % CO2. Ten μl of a WST-1 solution was added to each cavity, and incubation of THP-1 cells was allowed for 2 further hours at corresponding conditions. Metabolically active THP-1 cells reduce WST-1, a light red tetrazolium salt, yielding a soluble yellow formazan salt. The amount of reduced WST-1 correlates directly to the number of living cells, and is measured photometrically at a wavelength of λ=450 nm using a microtiter plate reader (reference wavelength is 630 nm). As a positive control, the known cytotoxic substance cycloheximide was used at a concentration of 50 μg/ml; the cytotoxicity of cycloheximide was set to 100%. […] The cytotoxicity of VIRIP peptides was calculated using the formula Viability [%]=[A450 nm (peptide)−A450 nm (cycloheximide)]/[A450 nm (negative control)−A450 nm (cycloheximide)]*100 and was correlated to the averaged viability of untreated THP-1 cells. […]

In data set [3] the target is T1, synthetic fusion peptide of HIV gp41 (Human immunodeficiency virus type 1 group M subtype B, UniProt P04578).
T1 construct: The fusion peptide is the very amino-terminal part of gp41 consisting of about 30 amino acid residues
Kind of data set: Inhibition of fusion peptide-induced hemolysis. The conditions noted are these: peptides at 1000, 100 and 10 μM preincubated with 100 μM fusion peptide, human erythrocytes, hemoglobin release. In kind it is cell-based. As to the method:
The synthetic fusion peptide of HIV gp41 causes concentration-dependent hemolysis which can be measured by hemoglobin released by erythrocytes.
Peptides and any other substance binding to the fusion peptide impair its potency to lyse erythrocytes by changing its structural properties. The inhibition of fusion peptide induced hemolysis was tested as follows: Blood from healthy donors was collected in citrate monovettes and the erythrocytes were extracted by a standard centrifugation and washing protocol known to the skilled person. The final erythrocyte-containing pellett was diluted 1:100 with phosphate-saline buffer. To the peptides (10, 100, or 1000 equivalents) 20 μl of a 100 μM fusion peptide solution in 10% DMSO were added and the solution was diluted to 100 μl with phosphate-buffered saline. A 60 min incubation at 37° C. was carried out. After the preincubation the samples were transferred to 96-well plates and 100 μl of the erythrocyte suspension were added and incubated for 60 min at 37° C. […] The 96-well plate is centrifuged 5 min at 2800 rpm and of the supernatant fluid 150 μl were transferred to a flat-bottom microtiter plate, and the absorbance was measured at 450 nm. The percentage hemolysis was calculated by: [(A450 of the peptide treated sample—A450 of buffer treated sample)/(A450 of Tween-20 treated sample—A450 of buffer treated sample)]×100%.

For data set [4] the following is noted: human, plasma.
Experimental: (§2) Plasma was spiked resulting in concentrations of 40 μg/ml and stored at 37° C. At time points 0, 15, 30, 45, 60, 120, 180, 240 and 300 min samples of 20 μl were taken. The plasma was immediately mixed for precipitation with the two-fold volume of acetonitrile containing 0.15% (w/v) n-nonyl-β-D-glucopyranoside. Following centrifugation the supernatants were mixed with the two-fold volume of 0.1% (v/v) trifluroacetic acid. Twenty μl of these solutions were analyzed by LC-MS. Chromatography was performed using a gradient with the following eluents: eluent A: water containing 0.06% trifluroacetic acid (v/v), eluent B: acetonitrile/water 80:20 (v/v; with 0.05% trifluoroacetic acid; v/v). A C18 precolumn was used in combination with a C18 separation column (300 Å, 5 μm, 150×1 mm inner diameter) at a flow rate of 30 μl/min. HPLC eluates were ionized by the electrospray technique of a LCQ classic mass spectrometer. Areas of the detected peaks of the peptides of the present invention were measured and used for quantification by external calibration. The calibration curve was linear over a range from 0.5 μg/ml to 250 μg/ml plasma. Half life—defined as the period for a concentration decrease to 50% of the initial concentration—was calculated from the slope of an extrapolated curve plotting the relative peptide concentration at a given time point (logarithm scale) against the incubation time. These experiments allowed the quantitative analysis of peptide concentration in plasma.
For data set [5] the following is noted: rat, plasma.
Experimental: as §2
For data set [6] the following is noted: dog, plasma.
Experimental: as §2
The conditions of data set [7]: cynomolgus monkey, plasma.
Experimental: as §2
Data set [8] concerns the target gp41 of HIV-1 NL4-3 (HIV-1 NL4-3). The data set is described as follows: cell-based or functional assay.
For data set [9], the target named is gp41 of HIV-1 NL4-3 DTV (HIV-1 NL4-3 DTV). The data set is described as follows: cell-based or functional assay.

As to `CC[C@H](C)[C@H](NC(=O)[C@H](C)NC(=O)[C@H](CCC(=O)O)NC(=O)[C@@H](N)CC(C)C)C(=O)N1CCC[C@H]1C(=O)N[C@@H](CCSC)C(=O)N[C@@H](CO)C(=O)N[C@H](C(=O)N1CCC[C@H]1C(=O)N1CCC[C@@H]1C(=O)N[C@@H](CCC(=O)O)C(=O)N[C@H](C(=O)N[C@@H](C)C(=O)N[C@@H](Cc1ccccc1)C(=O)N[C@@H](CC(N)=O)C(=O)N[C@@H](CCCCN)C(=O)N1CCC[C@H]1C(=O)N[C@@H](Cc1ccccc1)C(=O)N[C@H](C(=O)N[C@@H](Cc1ccccc1)C(=O)O)C(C)C)C(C)C)[C@@H](C)CC` [VIR-121, LEAIPMSIPpEVAFNKPFVF] (H-LEAIPMSIP[dP]EVAFNKPFVF-OH), the values for the half-inhibitory concentration (IC50) in the data set with HIV-1 NL4-3 DTV and in the data set with X4-tropic HIV-1 NL4-3 were 1790 nM and 370 nM, respectively. The changes of behaviour result in data set [1] (24 hours observation) is on record as “No changes of behaviour”. Moreover, the “macroscopic necropsy / pathological examination” value in data set [1] (sacrificed after 24 hours) is listed as “did not reveal any abnormalities; also recorded: No findings”. In addition, the “clinical signs (motility, dyspnea, ataxia, muscle tone)” value in data set [1] (tail vein, 24 hours observation) is given as “no signs of reduced or increased motility, dyspnea, ataxia, nor a reduced or increased muscle tone”.
On to `CC[C@H](C)[C@H](NC(=O)[C@H](C)NC(=O)[C@H](CCC(=O)O)NC(=O)[C@@H](N)CC(C)C)C(=O)N1CCC[C@H]1C(=O)N[C@H]1CSSC[C@@H](C(=O)N[C@@H](Cc2ccccc2)C(=O)N[C@@H](C)C(=O)N[C@@H](Cc2ccccc2)C(=O)N[C@@H](CC(N)=O)C(=O)N[C@@H](CCCCN)C(=O)N2CCC[C@H]2C(=O)N[C@@H](Cc2ccccc2)C(=O)N[C@H](C(=O)N[C@@H](Cc2ccccc2)C(=O)O)C(C)C)NC(=O)[C@@H]2CCCN2C(=O)[C@@H]2CCCN2C(=O)[C@H]([C@@H](C)CC)NC(=O)[C@H](CO)NC1=O` [VIR-165], for which the IC50 with HIV-1 NL4-3 DTV came out at 140 nM. The “cytotoxic effect on THP-1 cells” value in data set [2] is listed as “free of any cytotoxic effect; also recorded: did not exhibit a cytotoxic effect”. The “inhibition of fusion peptide-induced hemolysis” value (“inhibition” for short) in data set [3] was “Dose dependent inhibition”.
As to `CC[C@H](C)[C@H](NC(=O)[C@H](C)NC(=O)[C@H](CCC(=O)O)NC(=O)[C@@H](N)CC(C)C)C(=O)N1CCC[C@H]1C(=O)N[C@@H](CCSC)C(=O)N[C@@H](CO)C(=O)N[C@H](C(=O)N1CCC[C@H]1C(=O)N1CCC[C@@H]1C(=O)N[C@@H](CCC(=O)O)C(=O)N[C@H](C(=O)N[C@@H](C)C(=O)N[C@@H](Cc1ccccc1)C(=O)N[C@@H](CC(N)=O)C(=O)N[C@@H](CCCCN)C(=O)N1C2CCCCC2C[C@H]1C(=O)N[C@@H](Cc1ccccc1)C(=O)N[C@H](C(=O)N[C@@H](Cc1ccccc1)C(=O)O)C(C)C)C(C)C)[C@@H](C)CC` (stereo partly shown) [VIR-269, LEAIPMSIPpEVAFNK(Oic)FVF] (H-LEAIPMSIP[dP]EVAFNK[Oic(3aξ,7aξ)]FVF-OH), the half-inhibitory concentration (IC50) in the data set on HIV-1 NL4-3 DTV was determined as 900 nM; with X4-tropic HIV-1 NL4-3, 2610 nM. Besides, the “inhibition” value in data set [3] is listed as “Dose dependent inhibition”.
Consider `CC[C@H](C)[C@H](NC(=O)[C@H](C)NC(=O)[C@H](CCC(=O)O)NC(=O)[C@@H](N)CC(C)C)C(=O)N1CCC[C@H]1C(=O)N[C@@H](CCSC)C(=O)N[C@@H](CO)C(=O)N[C@H]1CSSC[C@@H](C(=O)N[C@@H](Cc2ccccc2)C(=O)NCC(=O)N[C@@H](CCCCN)C(=O)N2CCC[C@H]2C(=O)N[C@@H](Cc2ccccc2)C(=O)N[C@H](C(=O)N[C@@H](Cc2ccccc2)C(=O)O)C(C)C)NC(=O)[C@H](Cc2ccccc2)NC(=O)[C@H](CCC(=O)O)NC(=O)[C@@H]2CCCN2C(=O)[C@@H]2CCCN2C1=O` [VIR-568] (H-LEAIPMSCPPEFCFGKPFVF-OH; disulfide 8-13), for which the IC50 was found to be 552 nM in the data set with HIV-1 NL4-3 DTV and 367 nM in the data set on X4-tropic HIV-1 NL4-3. For the same molecule, the half-life is 3.9 h in [4], 0.1 h in data set [5], 4 h in [6] and 2.2 h in data set [7].
Consider `CC[C@H](C)[C@H](NC(=O)[C@H](C)NC(=O)[C@H](CCC(=O)O)NC(=O)[C@@H](N)CC(C)C)C(=O)N1CCC[C@H]1C(=O)N[C@@H](CCSC)C(=O)N[C@@H](CO)C(=O)N[C@H](C(=O)N1CCC[C@H]1C(=O)N1CCC[C@H]1C(=O)N[C@@H](CCC(=O)O)C(=O)N[C@@H](Cc1ccccc1)C(=O)N[C@@H](CC(C)C)C(=O)N[C@@H](Cc1ccccc1)C(=O)NCC(=O)N[C@@H](CCCCN)C(=O)N1CCC[C@H]1C(=O)N[C@@H](Cc1ccccc1)C(=O)N[C@H](C(=O)N[C@@H](Cc1ccccc1)C(=O)NCCOCCOCC(=O)NCCOCCOCC(N)=O)C(C)C)[C@@H](C)CC` [VIR-580] (H-LEAIPMSIPPEFLFGKPFVF[AEEA][AEEA]-NH2), for which the 50% inhibitory concentration (IC50) is 497 nM in the data set with HIV-1 NL4-3 DTV and 150 nM in the data set with X4-tropic HIV-1 NL4-3. The half-life in data set [4] was 38.9 h; in data set [5], 1.4 h; in data set [6], 42 h; in data set [7], 10.2 h.
As for H-LEAIPMSIPPEFLFGKPFVF-OH [VIR-175], the results for the 50% inhibitory concentration (IC50) in the data set on HIV-1 NL4-3 DTV and with X4-tropic HIV-1 NL4-3 were 300 nM and 225 nM, respectively. Further, the “inhibition” value in [3] is recorded as “Dose dependent inhibition”. The half-life in data set [4] was 5.3 h; in data set [5], 0.2 h; in data set [6] it was 17.3 h; in [7], 3 h.
Consider “H-LEAIPMSIPPEVKFNKPFVF-OH [VIRIP, reference compound]”, for which the 50% inhibitory concentration (IC50) in the data set on HIV-1 NL4-3 DTV was 22000 nM and 22200 nM; in the data set with X4-tropic HIV-1 NL4-3, 15000 nM. In data set [3], the “inhibition” value was “Dose dependent inhibition”. Moreover, the half-life in data set [4] is 53.7 h; in data set [5], 1.7 h; in data set [6], 35.9 h; in data set [7], 5.1 h.
In [8], VIR-576 (peptide) registered an IC50 NL4-3 (HIV-1 infection of P4-CCR5 cells) of 107 nM. Besides, the IC50 DTV (HIV-1 infection of P4-CCR5 cells) in data set [9] is 296 nM.
In turn, VIRIP (peptide) came in with an IC50 NL4-3 (HIV-1 infection of P4-CCR5 cells) in [8] of 15000 nM. In data set [9], the IC50 DTV (HIV-1 infection of P4-CCR5 cells) stood at 22200 nM.

B1: VIR-512 (peptide)
peptide: [NMeL]EAIPMSIPPEFLFGKPFVF
The molecule B1 came in with an IC50 NL4-3 (HIV-1 infection of P4-CCR5 cells) in data set [8] of 138 nM. The molecule further gave an IC50 DTV (HIV-1 infection of P4-CCR5 cells) in [9] of 615 nM.
